From paper PMC7854383, “Cellular Uptake of Psychostimulants – Are High- and Low-Affinity Organic Cation Transporters Drug Traffickers?” (Frontiers in Pharmacology, 2021)

How the values were obtained:
OCT3 = target: T1, OCT3 (Homo sapiens, UniProt O75751); assay: Screening of cellular uptake at 1 µM, OCT3-overexpressing HEK293 cells over empty vector control cells; format: in vitro ADME; details: 2 min
T1 construct: Koepsell and Gorbulev (University of Würzburg); host or cells: HEK293
T1 sequence (O75751 1-556): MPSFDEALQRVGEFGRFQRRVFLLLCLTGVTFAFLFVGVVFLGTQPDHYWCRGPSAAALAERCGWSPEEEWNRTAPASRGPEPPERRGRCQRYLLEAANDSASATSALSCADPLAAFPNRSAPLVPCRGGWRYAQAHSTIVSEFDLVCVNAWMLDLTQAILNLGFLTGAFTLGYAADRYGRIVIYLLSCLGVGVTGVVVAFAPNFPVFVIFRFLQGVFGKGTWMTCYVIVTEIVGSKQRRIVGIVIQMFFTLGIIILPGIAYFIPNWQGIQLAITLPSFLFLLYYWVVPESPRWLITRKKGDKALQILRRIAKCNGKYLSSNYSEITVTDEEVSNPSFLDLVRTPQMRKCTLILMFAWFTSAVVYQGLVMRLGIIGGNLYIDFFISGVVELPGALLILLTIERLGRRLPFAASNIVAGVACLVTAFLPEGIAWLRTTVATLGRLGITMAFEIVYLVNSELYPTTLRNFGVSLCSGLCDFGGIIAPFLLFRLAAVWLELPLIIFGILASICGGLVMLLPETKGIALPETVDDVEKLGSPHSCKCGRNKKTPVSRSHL
Description: (§1) Koepsell and Gorbulev (University of Würzburg, Germany).
(§2) Eighteen psychostimulants and hallucinogens were initially screened for their potential to be substrates for different polyspecific OCTs and high-affinity monoamine neurotransmitter transporters (Figure 3), as well as for the efflux transporter MATE2-K (Supplementary Figure S1).

wild-type OCT2 = target: T2, wild-type OCT2 (Homo sapiens, UniProt O15244); assay: Concentration-dependent transport by wild-type OCT2 in HEK293 cells
T2 sequence (O15244 1-555 S270A): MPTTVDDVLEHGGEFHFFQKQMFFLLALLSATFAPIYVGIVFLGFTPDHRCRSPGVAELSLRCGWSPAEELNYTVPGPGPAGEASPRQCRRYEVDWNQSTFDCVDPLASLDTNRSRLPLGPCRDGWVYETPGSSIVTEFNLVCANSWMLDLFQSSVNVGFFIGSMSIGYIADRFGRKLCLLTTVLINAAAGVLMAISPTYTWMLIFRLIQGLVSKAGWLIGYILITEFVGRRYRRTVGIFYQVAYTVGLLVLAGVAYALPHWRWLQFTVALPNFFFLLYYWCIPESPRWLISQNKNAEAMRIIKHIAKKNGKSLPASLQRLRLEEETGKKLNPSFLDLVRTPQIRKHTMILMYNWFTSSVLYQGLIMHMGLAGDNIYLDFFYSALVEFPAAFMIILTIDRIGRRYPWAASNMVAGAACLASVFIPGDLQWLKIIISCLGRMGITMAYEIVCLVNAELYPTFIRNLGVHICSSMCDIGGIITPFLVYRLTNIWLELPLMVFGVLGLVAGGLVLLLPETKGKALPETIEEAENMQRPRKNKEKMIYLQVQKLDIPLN

NET = NET (Homo sapiens, UniProt P23975); assay: Screening of cellular uptake at 1 µM, NET-overexpressing HEK293 cells over empty vector control cells; details: 2 min
Description: (§3) The HEK293 cells were cultered in DMEM medium supplemented with 10% (v/v) fetal bovine serum as well as penicillin (100 U/ml) and streptomycin (100 μg/ml) obtained from Thermo Fisher Scientific (Darmstadt, Germany). Cells were seeded on 12-well plates coated with poly-D-lysine (Sigma-Aldrich, Taufkirchen, Germany) 48 h before the transport experiments and incubated at 37°C, 95% relative humidity, and 5% CO2. […] All cell lines were washed with 37°C HBSS+ and subsequently incubated with the pre-warmed substrate in HBSS+ at 37°C. The time points for measuring substrate uptake were 1 min for MATE2-K and 2 min for the other SLCs. […] The reaction was stopped by adding ice-cold HBSS+, and the cells were washed twice with ice-cold HBSS+ before lysis with 80% acetonitrile (LGC Standards, Wesel, Germany) including an internal standard. Subsequently, the intracellular substrate accumulation was determined using LC-MS/MS.
(§4) Intracellular accumulation was measured by HPLC-MS/MS using a Shimadzu Nexera HPLC system with a LC-30AD pump, a SIL-30AC autosampler, a CTO-20AC column oven, and a CBM-20A controller (Shimadzu, Kyoto, Japan). […] Peak integration and quantification of the analytes was done using the Analyst software (Version 1.6.2, AB SCIEX, Darmstadt, Germany) and determined by simultaneous measurement of standard curves with known concentrations.

OCT2 variant A270S = target: T3, OCT2 variant A270S (Homo sapiens, UniProt O15244); assay: Concentration-dependent transport by OCT2 variant A270S in HEK293 cells
T3 sequence (O15244 1-555): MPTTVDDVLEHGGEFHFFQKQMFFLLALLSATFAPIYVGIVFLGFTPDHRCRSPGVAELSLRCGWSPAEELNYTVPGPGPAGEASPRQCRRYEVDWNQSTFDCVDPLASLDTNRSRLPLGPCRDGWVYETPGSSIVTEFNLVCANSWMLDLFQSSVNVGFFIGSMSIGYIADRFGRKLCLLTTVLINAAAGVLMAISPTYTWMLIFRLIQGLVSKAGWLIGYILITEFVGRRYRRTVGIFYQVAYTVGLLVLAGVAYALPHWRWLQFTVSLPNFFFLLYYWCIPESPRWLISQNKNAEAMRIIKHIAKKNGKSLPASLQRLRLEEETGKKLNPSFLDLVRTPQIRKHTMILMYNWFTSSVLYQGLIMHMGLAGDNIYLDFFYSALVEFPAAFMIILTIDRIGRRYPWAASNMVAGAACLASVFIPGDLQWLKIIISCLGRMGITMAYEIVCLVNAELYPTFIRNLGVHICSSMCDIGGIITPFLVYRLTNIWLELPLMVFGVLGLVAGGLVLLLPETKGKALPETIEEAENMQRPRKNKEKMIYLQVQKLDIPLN

DAT [1] = target: T4, DAT (Homo sapiens, UniProt Q01959); assay: Concentration-dependent transport by DAT in HEK293 cells; details: DAT versus NET
[2] = four healthy volunteers; ref Toennes and Kauert, 2002; www.dosing.de and www.drugbank.ca; cited from earlier work
OCT2 = target: T5, OCT2 (Homo sapiens, UniProt O15244); assay: Screening of cellular uptake at 1 µM, OCT2-overexpressing HEK293 cells over empty vector control cells; details: 2 min
T5 sequence (O15244 1-555 S270A): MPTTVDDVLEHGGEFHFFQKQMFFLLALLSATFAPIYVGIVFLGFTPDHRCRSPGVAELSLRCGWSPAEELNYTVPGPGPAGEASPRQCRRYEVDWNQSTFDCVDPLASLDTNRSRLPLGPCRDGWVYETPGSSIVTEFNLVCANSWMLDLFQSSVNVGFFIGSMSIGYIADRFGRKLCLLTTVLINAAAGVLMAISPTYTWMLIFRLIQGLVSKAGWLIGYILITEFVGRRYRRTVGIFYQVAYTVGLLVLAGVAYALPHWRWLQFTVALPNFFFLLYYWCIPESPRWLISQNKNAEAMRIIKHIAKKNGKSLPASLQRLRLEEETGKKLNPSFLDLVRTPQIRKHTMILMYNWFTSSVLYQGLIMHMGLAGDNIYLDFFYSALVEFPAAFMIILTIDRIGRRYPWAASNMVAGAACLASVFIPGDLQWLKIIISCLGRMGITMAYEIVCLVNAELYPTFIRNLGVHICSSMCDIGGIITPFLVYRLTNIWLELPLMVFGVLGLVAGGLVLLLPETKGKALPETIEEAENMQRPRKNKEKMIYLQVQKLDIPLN
Description: as §1, §2

DAT [3] = target: T4, DAT; assay: Screening of cellular uptake at 1 µM, DAT-overexpressing HEK293 cells over empty vector control cells; details: 2 min
Description: as §3, §4

T4 sequence (Q01959 whole entry): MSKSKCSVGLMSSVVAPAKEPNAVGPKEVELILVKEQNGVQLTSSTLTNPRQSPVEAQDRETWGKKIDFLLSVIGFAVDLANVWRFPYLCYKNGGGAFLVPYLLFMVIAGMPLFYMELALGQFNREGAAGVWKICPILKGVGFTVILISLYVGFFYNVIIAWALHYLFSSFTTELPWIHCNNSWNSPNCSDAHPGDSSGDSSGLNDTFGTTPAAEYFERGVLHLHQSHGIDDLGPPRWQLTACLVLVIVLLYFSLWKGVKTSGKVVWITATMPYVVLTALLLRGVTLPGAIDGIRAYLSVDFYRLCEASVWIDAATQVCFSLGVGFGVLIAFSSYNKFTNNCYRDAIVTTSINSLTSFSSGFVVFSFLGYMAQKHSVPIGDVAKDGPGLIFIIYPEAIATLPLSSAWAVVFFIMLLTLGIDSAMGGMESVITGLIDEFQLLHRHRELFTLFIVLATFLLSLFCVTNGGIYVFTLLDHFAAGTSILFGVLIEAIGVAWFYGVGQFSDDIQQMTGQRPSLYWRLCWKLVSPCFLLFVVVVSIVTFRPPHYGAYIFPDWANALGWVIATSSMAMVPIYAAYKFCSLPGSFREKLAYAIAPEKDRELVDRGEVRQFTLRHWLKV
NET, sequence (P23975 whole entry): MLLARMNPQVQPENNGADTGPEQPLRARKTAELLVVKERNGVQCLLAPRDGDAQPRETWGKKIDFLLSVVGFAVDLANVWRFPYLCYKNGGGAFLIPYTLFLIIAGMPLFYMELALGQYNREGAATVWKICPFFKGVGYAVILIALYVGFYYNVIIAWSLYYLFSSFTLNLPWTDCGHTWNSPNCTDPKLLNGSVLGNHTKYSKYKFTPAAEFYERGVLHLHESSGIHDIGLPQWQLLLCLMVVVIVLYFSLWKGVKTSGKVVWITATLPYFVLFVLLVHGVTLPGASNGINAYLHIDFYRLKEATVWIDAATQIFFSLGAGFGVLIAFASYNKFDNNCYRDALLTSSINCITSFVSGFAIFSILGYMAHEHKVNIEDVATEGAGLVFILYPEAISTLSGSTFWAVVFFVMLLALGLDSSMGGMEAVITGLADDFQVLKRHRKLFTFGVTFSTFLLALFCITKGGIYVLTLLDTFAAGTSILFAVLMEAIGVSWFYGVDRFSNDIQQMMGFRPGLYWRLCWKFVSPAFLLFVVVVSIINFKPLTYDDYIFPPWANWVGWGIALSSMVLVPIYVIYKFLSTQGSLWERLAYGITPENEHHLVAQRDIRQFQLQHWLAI

| Structure (SMILES) | ratio of uptake in transporter-transfected cells over empty vector control cells (OCT3) | vmax (wild-type OCT2; OCT2 WT) | Km at 2 min (wild-type OCT2; human, pH 7.4) | ratio of uptake in transporter-transfected cells over empty vector control cells (NET) | vmax (OCT2 variant A270S; OCT2 A270S) | Km at 2 min (OCT2 variant A270S; human, pH 7.4) | Km higher for DAT compared with NET (DAT [1]) | vmax higher for DAT compared with NET (DAT [1]) | excreted unchanged in urine [2] | ratio of uptake in transporter-transfected cells over empty vector control cells (OCT2) | ratio of uptake in transporter-transfected cells over empty vector control cells (DAT [3]) |
| --- | --- | --- | --- | --- | --- | --- | --- | --- | --- | --- | --- |
| CC(N)Cc1ccccc1 (centres unmarked) [Amphetamine] | does not appear to be a substrate |  |  |  |  |  |  |  |  |  |  |
| C[C@H](N)[C@@H](O)c1ccccc1 [Cathine, (+)-norpseudoephedrine] |  | 570.1 (± 94.3) pmol × mg protein^-1 × min^-1 | 46 ± 17.3 µM | 4 fold | 505.4 (± 168.1) pmol × mg protein^-1 × min^-1 | 58.4 µM | 21 fold | 10 fold | 46–65% | 4- to 6 fold | 7 fold |
